Several values for one entry are separate records, joined by “and”; a condition that tells them apart may be missing. Equal values may be shown once.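 Values below derive from 48-hour exposures of cells grown in 96-well plates, with endpoints linearly interpolated between the two concentrations bracketing the appropriate inhibition level. Here, GI50 denotes the concentration required for 50% inhibition of growth. At the TGI there is no net growth.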
What follows are compounds tested on MDA-MB-468 breast (assay: NCI-60 cell line screen, 48 h).
Compound `Nc1cc2ccncc2c2ccccc12` has a GI50 of 12.3 µM and a TGI of 36.5 µM.
`COC(=O)[C@@H](C)C[C@H](Cc1ccccc1)NC(=O)c1csc([C@@H](C[C@H](C(C)C)N(C)C(=O)[C@@H](NC(=O)CN(C)C)C2CC2)OC(C)=O)n1` showed a GI50 of 0.00658 µM.
In the case of `Nc1ncn(C2OC(CO)C(O)C2O)c(=O)n1` (stereo not drawn), the GI50 is reported as 1.21 µM and 0.925 µM and the TGI is reported as 6.45 µM and 8.06 µM.
For `CC(=O)O[C@H]1Cc2c([nH]c3ccccc23)[C@@H](c2ccc(Cl)cc2)N1C(=O)CCNC(C)(C)C`, the GI50 was 3.18 µM and the TGI was 7.67 µM.
In the case of `Cn1ccnc1C(=O)/C=C/c1ccc(CC(=O)Nc2cc(F)c(F)c(F)c2)cc1`, the GI50 is reported as 0.636 µM and the TGI is reported as 1.96 µM.
`O=C(Nc1ccc(I)cc1F)c1cc(F)ccc1O` showed a GI50 of 0.898 µM and a TGI of 5.3 µM.
With H-KIFKKFKTIIKKVWRIFGRF-NH2 the GI50 was 1.32 µM and the TGI was 5.94 µM.
With `O=C(N/N=C\c1cc(Br)cc(Br)c1O)N/N=C/c1cc(Br)cc(Br)c1O` the GI50 was 3.13 µM and the TGI was 8.85 µM.
With `Clc1ccc2c(NCCNc3nc(Cl)nc4ccccc34)ccnc2c1` the GI50 was 0.583 µM and the TGI was 2.03 µM.
Work on `CCN(Cc1cccc(C)c1)c1ccc(CO)c(Cl)c1` yielded a GI50 of 0.0362 µM and a TGI of 0.134 µM.
`c1ccc(-c2nn(-c3ccccc3)[n+](-c3ccccc3-c3ccccc3)n2)cc1` was tested, and the GI50 was 0.189 µM and the TGI was 0.923 µM.
In the case of `CCN(CC)CCn1nc2c3c(cccc3c1=O)-c1ccccc1-2`, the GI50 is reported as 2.22 µM and the TGI is reported as 8.43 µM.
With `COc1ccc(C(=O)C(CN(C)C)c2ccccc2)cc1` (stereo not drawn) the GI50 was 1.93 µM and the TGI was 4.96 µM.
`CO[C@H]1/C=C/C=C/C=C/C[C@H](OC(=O)[C@@H](C)NC(=O)C2CCCCC2)[C@H](C)[C@@H](O)/C(C)=C\CCC2=CC(=O)C=C(NC(=O)C1)C2=O` gave a GI50 of 0.142 µM and a TGI of 0.74 µM.
Work on `Cc1cccc(Cc2cnc(NC(=O)/C=C/c3ccco3)s2)c1` yielded a GI50 of 0.0407 µM and a TGI of 13.2 µM.
Work on `COc1cc2cc(Oc3ccc(NC(=O)Nc4cc(C(F)(F)F)cc(C(F)(F)F)c4)cc3)c(C)nc2cc1OCCN1CCCCC1` yielded a GI50 of 1.67 µM and a TGI of 3.32 µM.
`CCn1c(-c2nonc2N)nc2c(C#CC(C)(C)O)ncc(OCC3CCNCC3)c21` was tested, and the GI50 was 0.336 µM and the TGI was greater than 25 µM.
Compound `Cn1cc(C2=C(c3cccc(Cl)c3)C(=O)NC2=O)c2ccccc21` has a GI50 of 4.48 µM and a TGI of 24.6 µM.
`COC(=O)C1=C(C)NC(C)=C(C(=O)OC)C1c1ccccc1[N+](=O)[O-]` gave a GI50 of 25.3 µM and a TGI greater than 100 µM.
In the case of `O=C(Nc1ccc(Oc2cccc(Cl)c2)c(Cl)c1)c1cccnc1`, the GI50 is reported as 0.565 µM and the TGI is reported as 4.15 µM.
In the case of `CCN1CCN(c2nc(NNC(=O)c3cccc(OC)c3)nc(N3CCN(C(c4ccccc4)c4ccccc4)CC3)n2)CC1`, the GI50 is reported as 1.91 µM and the TGI is reported as 4.92 µM.
`CCCCOc1nc2ccccc2cc1C1CNC(=O)c2ccccc2N1` (stereo not drawn) gave a GI50 of 2.03 µM and a TGI of 9.56 µM.
With `O=C(c1nc2ccccc2[nH]1)C1C(c2cccc([N+](=O)[O-])c2)C2CC3CCCCC3N2[C@@]12C(=O)Nc1cc(Cl)ccc12` (stereo partly drawn) the GI50 was 1.39 µM and the TGI was 4 µM.
With `CCN(CC)c1ccc(/C=C2/NC(=O)NC2=O)cc1` the GI50 was 0.981 µM and the TGI was 7.84 µM.
With `CCN(CC)Cc1cc(Nc2c3ccc(Cl)cc3nc3c(C)cccc23)ccc1O` the GI50 was 1.37 µM and the TGI was 2.83 µM.
Compound `CCOC(=O)Nc1ccc2nc(Sc3ccc(Cl)cc3)sc2c1` has a GI50 of 0.719 µM and a TGI of 3.67 µM.
Compound `Fc1ccc(-c2ncn(C3CCNCC3)c2-c2ccnc(Oc3ccc(Oc4ccccc4)cc3)n2)cc1` has a GI50 of 1.94 µM and a TGI of 5.57 µM.
In the case of `Cn1cc(-c2nnc(N)nc2-c2c[nH]c3ccc(F)cc23)c2cc(Br)ccc21`, the GI50 is reported as 1.24 µM and the TGI is reported as 7.75 µM.
For `CN1CCN(Cc2ccc(NC(=O)c3cncc(C#Cc4cncc5[nH]ncc45)c3)cc2C(F)(F)F)CC1`, the GI50 was 1.08 µM and the TGI was 4.08 µM.
`O=C(CN1CCN(c2cc3c(cc2F)c(=O)c(C(=O)O)cn3C2CC2)CC1)Nc1ccc(C(=O)/C=C/c2ccccc2)cc1` showed a GI50 of 2.45 µM and a TGI of 23.2 µM.
In the case of `NC(=S)c1cn(C2OC(CO)C(O)C2O)c2ncnc(N)c12` (stereo not drawn), the GI50 is reported as 0.0589 µM and the TGI is reported as 0.252 µM.
For `Cc1ccc(/C=C2\CN(C(=O)CCN3CCC(=NO)CC3)C/C(=C\c3ccc(C)cc3)C2=O)cc1`, the GI50 was 1.46 µM and the TGI was 3.46 µM.

Reference: PubChem BioAssay (NCI)
